Consider 9 compounds from ChEMBL document CHEMBL1201862, “PubChem BioAssay data set” (2004).

Among the test systems are A498; ACHN; CAKI-1; HCT-116; MCF7; MDA-MB-435; MOLT-4; Malme-3M; NCI-H23; NCI-H522; NCI/ADR-RES; OVCAR-3; OVCAR-4; OVCAR-5; PC-3; RPMI-8226; SK-MEL-2; SNB-19; TK-10; UACC-257.
Assay in all cases: NCI anticancer screen, dose series, 48 h

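These data come from cells grown in 96-well plates and exposed to compound for 48 hours at five concentrations. Here, GI50 denotes the concentration required for 50% inhibition of growth.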 Activity calls are given as the source filed them. Cut-off read from the data, not from the text of the source: active = GI50 up to about 1.1 µM and inactive = higher.

`CC(C)c1cc(CN(C)C)c(O)c(C(C)(C)C)c1`: the GI50 with A498 is 20.7 µM (inactive); with ACHN, 16.8 µM (inactive); in the test with CAKI-1, 23.1 µM (inactive); with HCT-116 it was 36.9 µM (inactive); in the test with MCF7, 16.5 µM (inactive); in the test with MDA-MB-435, 36.3 µM (inactive). For the same compound, the GI50 in the test with MOLT-4 was 26.2 µM (inactive); with Malme-3M, 22.2 µM (inactive); with NCI-H23, 34.7 µM (inactive); in the test on NCI-H522 it was 15.9 µM (inactive); in the test with NCI/ADR-RES, 65.3 µM (inactive); in the test on OVCAR-3, 17.4 µM (inactive). Also, the GI50 in the test with OVCAR-4 was 28.8 µM (inactive); with OVCAR-5, > 100 µM (inactive); in the test with PC-3, 21.6 µM (inactive); in the test on RPMI-8226, 13.9 µM (inactive); with SK-MEL-2 it was 18.1 µM (inactive); in the test on SNB-19, 23.6 µM (inactive). For the same compound, the GI50 with TK-10 was 35.1 µM (inactive); in the test with UACC-257, 15.3 µM (inactive).
Regarding `CN(C)CCn1c(=O)c2ccc(NCCCN(C)CCCNc3ccc4c(=O)n(CCN(C)C)c(=O)n5c6ccc(O)cc6c(=O)c3c45)c3c(=O)c4cc(O)ccc4n(c1=O)c23`, the GI50 in the test on A498 is 0.0289 µM (active); in the test on ACHN, < 0.01 µM (active); with CAKI-1, < 0.01 µM (active); in the test with HCT-116 it was < 0.01 µM (active); in the test on MCF7, < 0.01 µM (active); in the test with MDA-MB-435 it was < 0.01 µM (active). Moreover, the GI50 with MOLT-4 was < 0.01 µM (active); with Malme-3M, 0.0659 µM (active); with NCI-H23, < 0.01 µM (active); in the test with NCI-H522, < 0.01 µM (active); in the test on NCI/ADR-RES, 0.181 µM (active); in the test on OVCAR-3, 0.059 µM (active). In addition, the GI50 is < 0.01 µM (active) in the test on OVCAR-4; 0.0442 µM (active) with OVCAR-5; < 0.01 µM (active) in the test on PC-3; < 0.01 µM (active) with RPMI-8226; 0.0335 µM (active) with SK-MEL-2; < 0.01 µM (active) with SNB-19. Further, the GI50 in the test with TK-10 is < 0.0126 µM (active); in the test with UACC-257, 0.181 µM (active).
With `O=c1c2ccccc2sc2cccc(NCCCN3CCN(CCCNc4cccc5sc6ccccc6c(=O)c45)CC3)c12`, the GI50 in the test with A498, in the test on ACHN, in the test on CAKI-1, with HCT-116, in the test with MCF7 and in the test on MDA-MB-435 was > 100 µM (inactive) throughout. Moreover, the GI50 in the test with MOLT-4, with Malme-3M, with NCI-H23, with NCI-H522, in the test with NCI/ADR-RES and in the test with OVCAR-3 was > 100 µM (inactive) each time. For the same compound, the GI50 with OVCAR-4 was > 100 µM (inactive); in the test on OVCAR-5, > 100 µM (inactive); in the test with PC-3, 85.1 µM (inactive); with RPMI-8226 it was > 100 µM (inactive); in the test on SK-MEL-2 it was > 100 µM (inactive); in the test with SNB-19, > 100 µM (inactive). Besides, the GI50 in the test on TK-10 and in the test with UACC-257 was > 100 µM (inactive) throughout.
For the compound `CC(C)OC(=O)c1ccc(CCc2cc(O)c(Br)cc2O)cc1`, the GI50 in the test with A498 was 21 µM (inactive); with ACHN, 18 µM (inactive); in the test with CAKI-1, 11.4 µM (inactive); in the test on HCT-116, 11.5 µM (inactive); in the test on MCF7 it was 11.7 µM (inactive); in the test on MDA-MB-435, 8.11 µM (inactive). For the same compound, the GI50 in the test with MOLT-4 is 7.94 µM (inactive); in the test with Malme-3M, 17.2 µM (inactive); in the test on NCI-H23, 8.85 µM (inactive); in the test with NCI-H522 it was 6.24 µM (inactive); in the test with NCI/ADR-RES it was 9.2 µM (inactive); in the test on OVCAR-3 it was 8.11 µM (inactive). Further, the GI50 in the test with OVCAR-4 was 2.31 µM (inactive); in the test on OVCAR-5 it was 17.5 µM (inactive); in the test on PC-3, 8.32 µM (inactive); in the test on RPMI-8226, 2.72 µM (inactive); in the test on SK-MEL-2, 13.1 µM (inactive); in the test on SNB-19, 14.8 µM (inactive). In addition, the GI50 was 16.9 µM (inactive) with TK-10 and 13.6 µM (inactive) in the test with UACC-257.
Take `O=C1C(C(O)(C(F)(F)Cl)C(F)(F)Cl)CCC1C(O)(C(F)(F)Cl)C(F)(F)Cl` (stereo not given): the GI50 in the test with A498 is 3.85 µM (inactive); with ACHN, 3.81 µM (inactive); in the test on CAKI-1, 3.4 µM (inactive); in the test on HCT-116, 2.5 µM (inactive); in the test with MCF7 it was 3.48 µM (inactive); in the test with MDA-MB-435, > 10 µM (inactive). Further, the GI50 in the test with MOLT-4 is 5.55 µM (inactive); in the test with Malme-3M, 5.47 µM (inactive); in the test with NCI-H23, 2.8 µM (inactive); with NCI-H522, 4.45 µM (inactive); in the test on NCI/ADR-RES, > 10 µM (inactive); with OVCAR-3, 7.28 µM (inactive). Further, the GI50 in the test with OVCAR-4 is 3.4 µM (inactive); in the test with OVCAR-5, 5.43 µM (inactive); in the test with PC-3 it was 4.53 µM (inactive); in the test with RPMI-8226 it was > 10 µM (inactive); in the test with SK-MEL-2 it was 2.3 µM (inactive); in the test with SNB-19 it was 4.3 µM (inactive). Further, the figures for the GI50 with TK-10 and in the test on UACC-257 were 5.52 µM (inactive) and 2.79 µM (inactive), respectively.
As for `Brc1cccc(/C=C/CN2CCN(CCOC(c3ccccc3)c3ccccc3)CC2)c1`, the GI50 is 17.5 µM (inactive) in the test on A498; 17.5 µM (inactive) with ACHN; 15.9 µM (inactive) in the test on CAKI-1; 13.7 µM (inactive) in the test with HCT-116; 14.5 µM (inactive) with MCF7; 12.6 µM (inactive) with MDA-MB-435. Further, the GI50 was 8.47 µM (inactive) with MOLT-4; 16.1 µM (inactive) in the test on Malme-3M; 16.5 µM (inactive) in the test with NCI-H23; 14.4 µM (inactive) in the test on NCI-H522; 14.7 µM (inactive) in the test on NCI/ADR-RES; 15.4 µM (inactive) with OVCAR-3. The GI50 in the test with OVCAR-4 is 11.7 µM (inactive); in the test on OVCAR-5 it was 16.2 µM (inactive); with PC-3 it was 13.2 µM (inactive); in the test with RPMI-8226, 4.08 µM (inactive); with SK-MEL-2 it was 17.8 µM (inactive); with SNB-19 it was 16.7 µM (inactive). Moreover, the GI50 in the test on TK-10 was 19.3 µM (inactive); with UACC-257, 17.9 µM (inactive).
In the case of `COC(=O)C1=C(OC(=O)/C(=C/c2ccc(Cl)cc2Cl)c2ccc(Cl)cc2Cl)C(C(=O)OC)[C@@]2(O)[C@@H](C(=O)OC)[C@H](C)C[C@@H]1[C@@H]2C(=O)OC` (stereo not given in full), the GI50 in the test on A498, in the test with ACHN, with CAKI-1, with HCT-116, in the test with MCF7 and with MDA-MB-435 was > 100 µM (inactive) each time. In addition, the GI50 in the test on MOLT-4 is > 100 µM (inactive); in the test with Malme-3M, > 100 µM (inactive); in the test with NCI-H23, > 100 µM (inactive); with NCI-H522 it was 64.1 µM (inactive); in the test on NCI/ADR-RES, > 100 µM (inactive); in the test with OVCAR-3, > 100 µM (inactive). For the same compound, the GI50 is > 100 µM (inactive) in the test with OVCAR-4; > 100 µM (inactive) with OVCAR-5; 7.1 µM (inactive) in the test with PC-3; > 100 µM (inactive) in the test with RPMI-8226; > 100 µM (inactive) in the test on SK-MEL-2; > 100 µM (inactive) in the test with SNB-19. The GI50 in the test on TK-10 and in the test with UACC-257 was > 100 µM (inactive) throughout.
On to `CN(C)/C=N/NC(=O)/C(C#N)=C/N(C)C`, for which the GI50 in the test with A498, in the test on ACHN, in the test with CAKI-1, with HCT-116, in the test with MCF7 and in the test with MDA-MB-435 was > 100 µM (inactive) in each case. Moreover, the GI50 is > 100 µM (inactive) in the test on MOLT-4; 75.3 µM (inactive) in the test on Malme-3M; > 100 µM (inactive) with NCI-H23; > 100 µM (inactive) in the test with NCI-H522; > 100 µM (inactive) in the test with NCI/ADR-RES; > 100 µM (inactive) in the test with OVCAR-3. The GI50 in the test on OVCAR-4, with OVCAR-5, in the test on PC-3, in the test with RPMI-8226, in the test on SK-MEL-2 and in the test on SNB-19 was > 100 µM (inactive) in each case. The GI50 in the test on TK-10 and in the test on UACC-257 was > 100 µM (inactive) each time.
As to `CCC[C@H](C)[C@H]1NC(=O)[C@@H](NC(=O)[C@@H](CC(C)C)N(C)C(=O)C2CCCN2C(=O)[C@H](C)O)[C@@H](C)OC(=O)[C@H](CC(C)C)N(C)C(=O)[C@@H]2CCCN2C(=O)[C@H](CC(C)C)NC(=O)[C@@H](C)C(=O)[C@H](C(C)C)OC(=O)C[C@@H]1O` (stereo not given in full), the GI50 in the test on A498 was 0.0115 µM (active); in the test with ACHN it was < 0.0025 µM (active); in the test with CAKI-1, 0.0162 µM (active); in the test with HCT-116 it was < 0.0025 µM (active); in the test on MCF7 it was < 0.0025 µM (active); in the test on MDA-MB-435 it was < 0.0025 µM (active). In addition, the GI50 in the test with MOLT-4 was < 0.0025 µM (active); in the test with Malme-3M, < 0.0025 µM (active); in the test on NCI-H23 it was < 0.0025 µM (active); with NCI-H522, < 0.0025 µM (active); with NCI/ADR-RES it was 0.189 µM (active); in the test with OVCAR-3, < 0.0025 µM (active). Also, the GI50 in the test on OVCAR-4, in the test on OVCAR-5, in the test on PC-3, in the test on RPMI-8226, in the test on SK-MEL-2 and in the test on SNB-19 was < 0.0025 µM (active) each time. For the same compound, the GI50 in the test with TK-10 and in the test on UACC-257 was < 0.0025 µM (active) each time.
